Columns and labels:
Type in all cases: in vivo
[1] = system: barnyardgrass (Echinochloa crus-galli); experiment: Test A preemergence, barnyardgrass; conditions: Preemergence, 0 to 100 scale (0 no effect, 100 complete control)
Summary of the method: (§1)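 Scores (0 no effect to 100 complete control) come from visual comparison of treated and untreated plants kept about 10 days in a greenhouse. Growth medium was a loam/sand blend; preemergence treatment was a directed soil spray, postemergence treatment went onto plants at the 1–2 leaf stage.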

kochia (Kochia scoparia) [2] = experiment: Test A preemergence, kochia; conditions: Preemergence, 0 to 100 scale (0 no effect, 100 complete control)
Summary of the method: as §1

[3] = system: ragweed (common ragweed, Ambrosia elatior); experiment: Test A preemergence, ragweed; conditions: Preemergence, 0 to 100 scale (0 no effect, 100 complete control)
Summary of the method: as §1

[4] = system: ryegrass, Italian (Italian ryegrass, Lolium multiflorum); experiment: Test A preemergence, Italian ryegrass; conditions: Preemergence, 0 to 100 scale (0 no effect, 100 complete control)
Summary of the method: as §1

[5] = system: foxtail, giant (giant foxtail, Setaria faberii); experiment: Test A preemergence, giant foxtail; conditions: Preemergence, 0 to 100 scale (0 no effect, 100 complete control)
Summary of the method: as §1

[6] = system: pigweed (Amaranthus retroflexus); experiment: Test A preemergence, pigweed; conditions: Preemergence, 0 to 100 scale (0 no effect, 100 complete control)
Summary of the method: as §1

[7] = system: barnyardgrass (Echinochloa crus-galli); experiment: Test A postemergence, barnyardgrass
Summary of the method: as §1

kochia (Kochia scoparia) [8] = experiment: Test A postemergence, kochia
Summary of the method: as §1

[9] = system: ragweed (common ragweed, Ambrosia elatior); experiment: Test A postemergence, ragweed
Summary of the method: as §1

[10] = system: ryegrass, Italian (Italian ryegrass, Lolium multiflorum); experiment: Test A postemergence, Italian ryegrass
Summary of the method: as §1

[11] = system: foxtail, giant (giant foxtail, Setaria faberii); experiment: Test A postemergence, giant foxtail
Summary of the method: as §1

[12] = system: pigweed (Amaranthus retroflexus); experiment: Test A postemergence, pigweed
Summary of the method: as §1

[13] = system: wheat (Triticum aestivum); experiment: Test A postemergence, wheat
Summary of the method: as §1

corn (Zea mays) = experiment: Test A postemergence, corn
Summary of the method: as §1

[14] = system: blackgrass (Alopecurus myosuroides); experiment: Test A postemergence, blackgrass
Summary of the method: as §1

[15] = system: galium (catchweed bedstraw, Galium aparine); experiment: Test A postemergence, galium
Summary of the method: as §1

rice (Oryza sativa) = experiment: Test B flooded paddy test, rice; conditions: 250 g ai/ha, Flood; visual rating after 13 to 15 days; scale 0 to 100, 0 is no effect, 100 is complete control
Summary of the method: (§2)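 Plants grown to 2-leaf stage, pots flooded to 3 cm above soil and compound applied directly to paddy water, depth maintained throughout. After 13-15 days in greenhouse, visual rating against untreated controls on 0-100 scale (0 no effect, 100 complete control).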

[16] = system: sedge, umbrella (small-flower umbrella sedge, Cyperus difformis); experiment: Test B flooded paddy test, umbrella sedge; conditions: 250 g ai/ha, Flood; visual rating after 13 to 15 days; scale 0 to 100, 0 is no effect, 100 is complete control
Summary of the method: as §2

[17] = system: ducksalad (Heteranthera limosa); experiment: Test B flooded paddy test, ducksalad; conditions: 250 g ai/ha, Flood; visual rating after 13 to 15 days; scale 0 to 100, 0 is no effect, 100 is complete control
Summary of the method: as §2

[18] = system: barnyardgrass (Echinochloa crus-galli); experiment: Test B flooded paddy test, barnyardgrass; conditions: 250 g ai/ha, Flood; visual rating after 13 to 15 days; scale 0 to 100, 0 is no effect, 100 is complete control
Summary of the method: as §2

[19] = 125 g ai/ha, postemergence, 0 to 100 scale, 0 is no effect, 100 is complete control, approximately 10 days
[20] = Postemergence, 31 g ai/ha, 0 to 100 scale (0 no effect, 100 complete control)

CCC(=O)COc1c(Br)cccc1Oc1ncc(Cl)cn1 [Compound 76]
40: Plant response rating, Barnyardgrass ([1]; 125 g ai/ha) | Plant response rating, Foxtail, Giant [11, 19]
70: Plant response rating, Foxtail, Giant ([5]; 125 g ai/ha) | Plant response rating, Sedge, Umbrella [16]
10: Plant response rating, Ryegrass, Italian ([4]; 125 g ai/ha) | Plant response rating, Foxtail, Giant ([5]; 31 g ai/ha) | Plant response rating, Kochia (kochia (Kochia scoparia) [8]; [19]) | Plant response rating, Foxtail, Giant [11, 20] | Plant response rating, Pigweed [12, 20] | Plant response rating, Corn (corn (Zea mays); [19]) | Plant response rating, Blackgrass [14, 19] | Plant response rating, Galium [15, 20] | Plant response rating, Rice (rice (Oryza sativa)) | Plant response rating, Barnyardgrass [18]
0: Plant response rating, Kochia (kochia (Kochia scoparia) [2]; 31 g ai/ha) | Plant response rating, Kochia (kochia (Kochia scoparia) [2]; 125 g ai/ha) | Plant response rating, Ragweed ([3]; 31 g ai/ha) | Plant response rating, Ragweed ([3]; 125 g ai/ha) | Plant response rating, Ryegrass, Italian ([4]; 31 g ai/ha) | Plant response rating, Pigweed ([6]; 31 g ai/ha) | Plant response rating, Barnyardgrass [7, 20] | Plant response rating, Kochia (kochia (Kochia scoparia) [8]; [20]) | Plant response rating, Ragweed [9, 19] | Plant response rating, Ragweed [9, 20] | Plant response rating, Ryegrass, Italian [10, 19] | Plant response rating, Ryegrass, Italian [10, 20] | Plant response rating, Wheat [13, 19] | Plant response rating, Wheat [13, 20] | Plant response rating, Corn (corn (Zea mays); [20]) | Plant response rating, Blackgrass [14, 20]
80: Plant response rating, Pigweed ([6]; 125 g ai/ha)
20: Plant response rating, Barnyardgrass ([1]; 31 g ai/ha) | Plant response rating, Barnyardgrass [7, 19] | Plant response rating, Galium [15, 19]
30: Plant response rating, Pigweed [12, 19]
90: Plant response rating, Ducksalad [17]

Source: patent US10485235B2, “Aryloxypyrimidinyl ethers as herbicides” (FMC Corporation, priority 2015, dated 2019)
